Reference: patent US12410160B2 (Gilead Sciences, Inc., priority 2021, dated 2025)

Key:
human KHK-A = human KHK-A (Homo sapiens (Human), UniProt P50053); test: KHK Biochemical Assay (IC50), ADP-Glo, KHK-A; conditions: average of at least two separate assays
Method in brief: (§1)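 Luminescent ADP-Glo read-out of ADP made by His-tagged KHK (BL21 (DE3) expression, Ni-NTA). Enzyme and compound sat together 30 min before ATP/fructose addition, then reacted 4 h at RT in Hepes pH 7.4 buffer with KCl, MgCl2, Triton-X. Quench 1 h, detection 1 h.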

[1] = biological target: KHK-C expressed in NRK-52E cells (Homo sapiens (Human), UniProt P50053); test: KHK-C Cell-based Assay (EC50), NRK CTG, fructose-mediated ATP-depletion
KHK-C expressed in NRK-52E cells, sequence (P50053 whole entry): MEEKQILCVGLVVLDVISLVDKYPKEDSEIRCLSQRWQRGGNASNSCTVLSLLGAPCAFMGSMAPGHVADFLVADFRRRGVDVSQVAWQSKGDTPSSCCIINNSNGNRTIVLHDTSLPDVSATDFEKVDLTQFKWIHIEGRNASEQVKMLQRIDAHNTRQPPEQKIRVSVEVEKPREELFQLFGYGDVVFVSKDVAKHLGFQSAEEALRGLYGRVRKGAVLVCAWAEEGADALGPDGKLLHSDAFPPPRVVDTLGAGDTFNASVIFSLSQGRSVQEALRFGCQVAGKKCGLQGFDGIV

human KHK-C = human KHK-C (Homo sapiens (Human), UniProt P50053); test: KHK Biochemical Assay (IC50), ADP-Glo, KHK-C; conditions: average of at least two separate assays
human KHK-C, sequence (P50053 whole entry): as above
Method in brief: as §1

human KHK-A, sequence (P50053 other isoform, or with tags, fused parts or gaps): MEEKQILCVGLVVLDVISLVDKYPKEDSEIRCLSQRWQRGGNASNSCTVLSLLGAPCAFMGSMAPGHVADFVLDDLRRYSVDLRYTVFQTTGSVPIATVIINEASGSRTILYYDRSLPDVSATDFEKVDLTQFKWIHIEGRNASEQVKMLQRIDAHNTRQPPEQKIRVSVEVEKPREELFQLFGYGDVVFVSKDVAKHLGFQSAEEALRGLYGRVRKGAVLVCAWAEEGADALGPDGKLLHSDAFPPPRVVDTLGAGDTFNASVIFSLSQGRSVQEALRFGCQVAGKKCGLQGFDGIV

## C[C@H]1CCN1c1nc(-c2cccc(S(N)(=O)=O)c2)c2c(n1)C(F)(F)CC2 [Example 321, (S)-3-(7,7-difluoro-2-(2-methylazetidin-1-yl)-6,7-dihydro-5H-cyclopenta[d]pyrimidin-4-yl)benzenesulfonamide]
Human KHK-A; ADP-Glo
  IC50: 4.8 nM
[1]
  EC50: 7.3 nM
Human KHK-C; ADP-Glo
  IC50: 4.4 nM

## C[C@H]1CCN1c1nc2c(c(-c3ccc4c(c3)OCCNC4=O)n1)CCC2 [Example 149, (S)-8-(2-(2-methylazetidin-1-yl)-6,7-dihydro-5H-cyclopenta[d]pyrimidin-4-yl)-3,4-dihydrobenzo[f][1,4]oxazepin-5(2H)-one]
Human KHK-A; ADP-Glo
  IC50: 33.2 nM
[1]
  EC50: 18.8 nM
Human KHK-C; ADP-Glo
  IC50: 6.7 nM

## C[C@H]1CCN1c1nc(-c2cccc(N=[S@@](C)(N)=O)c2)c2c(n1)C(F)(F)CC2 (single isomer, unassigned) [Example 691]
Human KHK-A
  IC50: 7.5 nM
[1]
  EC50: 50.4 nM
Human KHK-C
  IC50: 7.4 nM

## C[C@H]1CCN1c1nc2c(c(-c3ccc4c(c3)C(=O)NCCO4)n1)CCC2 [Example 150, (S)-7-(2-(2-methylazetidin-1-yl)-6,7-dihydro-5H-cyclopenta[d]pyrimidin-4-yl)-3,4-dihydrobenzo[f][1,4]oxazepin-5(2H)-one]
Human KHK-A; ADP-Glo
  IC50: 32.2 nM
[1]
  EC50: 73.2 nM
Human KHK-C; ADP-Glo
  IC50: 33.1 nM

## C[C@H]1CCN1c1nc2c(c(-c3cccc([C@H]4C[C@@H]4c4nn[nH]n4)c3)n1)CCC2 (relative stereo) [Example 270, 4-(3-((1S*,2S*)-2-(2H-tetrazol-5-yl)cyclopropyl)phenyl)-2-((S)-2-methylazetidin-1-yl)-6,7-dihydro-5H-cyclopenta[d]pyrimidine]
Human KHK-A; ADP-Glo
  IC50: 62.3 nM
[1]
  EC50: 2140 nM
Human KHK-C; ADP-Glo
  IC50: 44.7 nM

## C[C@H]1[C@H](F)CN1c1nc2c(c(-c3ccc(C(N)=O)s3)n1)CCC2 [Example 58]
Human KHK-A; ADP-Glo
  IC50: 5.8 nM
[1]
  EC50: 9.5 nM
Human KHK-C; ADP-Glo
  IC50: 7.9 nM

## C[C@H]1[C@H](O)CN1c1nc(-c2cccc(S(N)(=O)=O)c2)c2c(cnn2C)n1 [Example 38]
Human KHK-A; ADP-Glo
  IC50: 812 nM
[1]
  EC50: 12200 nM
Human KHK-C; ADP-Glo
  IC50: 836 nM

## C[C@H]1CN(c2nc3c(c(-c4ccc(C(N)=O)cc4)n2)CCC3)[C@H]1C [Example 107, 4-(2-((2S,3S)-2,3-dimethylazetidin-1-yl)-6,7-dihydro-5H-cyclopenta[d]pyrimidin-4-yl)benzamide]
Human KHK-A; ADP-Glo
  IC50: 1550 nM
[1]
  EC50: 2920 nM
Human KHK-C; ADP-Glo
  IC50: 1060 nM

## COc1cc(-c2nc(N3CC[C@@H]3C)nc3c2CCC3)ccc1C(N)=O [Example 309, (S)-2-methoxy-4-(2-(2-methylazetidin-1-yl)-6,7-dihydro-5H-cyclopenta[d]pyrimidin-4-yl)benzamide]
Human KHK-A; ADP-Glo
  IC50: 19 nM
[1]
  EC50: 15.8 nM
Human KHK-C; ADP-Glo
  IC50: 17.4 nM

## C[C@H]1CCN1c1nc2c(c(-c3cccc(CN4CC(O)C4)c3)n1)CCC2 [Example 350, 1-[[3-[2-[(2S)-2-methylazetidin-1-yl]-6,7-dihydro-5H-cyclopenta[d]pyrimidin-4-yl]phenyl]methyl]azetidin-3-ol]
Human KHK-A; ADP-Glo
  IC50: 16.8 nM
[1]
  EC50: 14 nM
Human KHK-C; ADP-Glo
  IC50: 19.3 nM

## COC(=O)[C@@H]1C[C@@]12C(=O)Nc1ccc(-c3nc(N4CC[C@@H]4C)nc4c3CCC4)cc12 (racemic) [Example 406, rac-methyl (1R,2R)-5′-(2-((S)-2-methylazetidin-1-yl)-6,7-dihydro-5H-cyclopenta[d]pyrimidin-4-yl)-2′-oxospiro[cyclopropane-1,3′-indoline]-2-carboxylate]
Human KHK-A
  IC50: 841 nM
[1]
  EC50: 397 nM
Human KHK-C
  IC50: 1040 nM

## O=C1N[C@@]2(CO1)COc1cc(-c3nc(N4CCC4C(F)F)nc4c3CCC4(F)F)ccc12 (stereo partly drawn) [Example 831, (3R)-6-(2-(2-(difluoromethyl)azetidin-1-yl)-7,7-difluoro-6,7-dihydro-5H-cyclopenta[d]pyrimidin-4-yl)-2H-spiro[benzofuran-3,4′-oxazolidin]-2′-one]
Human KHK-A; ADP-Glo
  IC50: 6.3 nM
[1]
  EC50: 8.7 nM
Human KHK-C; ADP-Glo
  IC50: 0.6 nM
